Experiments:
[1] = acute toxicity: 50% lethal dose (LD50) by oral administration to mice; conditions: mouse, in vivo
blood sugar = experiment: blood sugar-lowering test: oral administration to mice prior to subcutaneous injection of glucose (one g/kg); format: in vivo; conditions: 100 mg/kg required; same conditions (mice, oral, s.c. glucose one g/kg)
blood-pressure = conditions: known cardiotonic compounds, U.S. Pat. 3869474 and Offenlegungsschrift 2420427; cited from earlier work
adrenergic β1 -receptor = conditions: known compounds, U.S. Pat. 3869474 and Offenlegungsschrift 2420427; cited from earlier work

`COc1ccc(CCNCC(O)c2ccccc2OC)cc1OC` (racemic) [dl-α-(3,4-dimethoxyphenethylaminomethyl)-2-methoxybenzylalcohol] gave an LD50 [1] of roughly 580 mg/kg.

In the case of `N=C(N)NC(=N)NCCc1ccccc1` [Phenformin, 1-phenethylbiguanide], the “decrease in the blood sugar” value (blood sugar) is reported as roughly 30%.

In the case of `COc1cc(CCNCC(O)c2ccc(O)c(O)c2)cc(OC)c1OC` (stereo not drawn) [α-(3,4,5-trimethoxyphenethylaminomethyl)-3,4-dihydroxybenzylalcohol], the influence upon blood-pressure (blood-pressure) is given as “no substantial influence” and the “activation of adrenergic β1-receptor” value (adrenergic β1 -receptor) is given as “selective activation”.

For `COc1ccc(CCNCC(O)c2ccc(O)c(O)c2)cc1OC` (stereo not drawn) [α-(3,4-dimethoxyphenethylaminomethyl)-3,4-dihydroxybenzylalcohol], the influence upon blood-pressure (blood-pressure) is given as “no substantial influence” and the “activation of adrenergic β1-receptor” value (adrenergic β1 -receptor) is given as “selective activation”.

From patent US4131686A, “Novel benzylalcohol derivatives and processes for preparing the same” (Tanabe Seiyaku Co., Ltd., priority 1975, dated 1978)
